The values below come from PubChem BioAssay (NCI).

Among the test systems are SR leukemia; SNB-19 CNS; DU-145 prostate; HT29 colon; M14 melanoma; IGROV1 ovarian; MCF7 breast; OVCAR-4 ovarian; TK-10 renal; RPMI-8226 leukemia.
What all share (test): growth of human tumour cells (NCI), 48 h

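Dose response: 5 concentrations. Exposure: 48 h. Format: 96-well plates. Endpoint: linear interpolation; highest concentration if not reached. Abbreviation: GI50, concentration required for 50% inhibition of growth. Definition used: TGI = concentration required for complete inhibition of growth.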 Some results are limits rather than exact numbers.

Regarding `C[As](C)SCC(COC(=O)C(Cl)c1ccccc1)OC(=O)C(Cl)c1ccccc1` (configuration not stated), the GI50 in the experiment on SR leukemia is 1.41 µM; in the experiment with SNB-19 CNS, 14.5 µM; with DU-145 prostate, 1.24 µM; with HT29 colon, 0.754 µM; in the experiment with M14 melanoma, 0.614 µM; with IGROV1 ovarian, 1.93 µM. Also, the GI50 with MCF7 breast was 0.46 µM; with OVCAR-4 ovarian, 4.38 µM; in the experiment on TK-10 renal, 0.222 µM; with RPMI-8226 leukemia it was 0.299 µM. Also, the TGI was 5.84 µM with SR leukemia; 50 µM in the experiment with SNB-19 CNS; 16.9 µM in the experiment on DU-145 prostate; over 100 µM in the experiment on HT29 colon; 15.7 µM in the experiment on M14 melanoma; over 42.6 µM with IGROV1 ovarian. The TGI in the experiment on MCF7 breast came out at 12.9 µM; in the experiment on OVCAR-4 ovarian, 18 µM; in the experiment on TK-10 renal, 1.58 µM; in the experiment with RPMI-8226 leukemia, 1.37 µM.
Regarding `CCOC(=O)C1c2[nH]c3ccccc3c2CCN1C(=O)c1ccc(OC)o1` (configuration not stated), the TGI with SR leukemia, with SNB-19 CNS, with DU-145 prostate, in the experiment with HT29 colon, with M14 melanoma and in the experiment on IGROV1 ovarian was over 10 µM in each case. Moreover, the TGI in the experiment with MCF7 breast, with OVCAR-4 ovarian, in the experiment on TK-10 renal and in the experiment on RPMI-8226 leukemia was over 10 µM in each case.
`C[C@@]12CCC[C@@](C)(C(=O)O)C1CC[C@]13C[C@@](O)(CO)[C@](O)(CCC12)C3` (some centres not stated): the GI50 is 55.3 µM with SR leukemia; over 100 µM in the experiment on SNB-19 CNS; over 100 µM with DU-145 prostate; over 100 µM with HT29 colon; over 100 µM in the experiment on M14 melanoma; over 100 µM in the experiment on IGROV1 ovarian. In addition, the GI50 in the experiment on MCF7 breast, with OVCAR-4 ovarian, in the experiment on TK-10 renal and with RPMI-8226 leukemia was over 100 µM each time. The TGI in the experiment on SR leukemia, in the experiment with SNB-19 CNS, with DU-145 prostate, in the experiment with HT29 colon, in the experiment with M14 melanoma and in the experiment on IGROV1 ovarian was over 100 µM in each case. For the same molecule, the TGI in the experiment with MCF7 breast, in the experiment on OVCAR-4 ovarian, in the experiment with TK-10 renal and with RPMI-8226 leukemia was over 100 µM each time.
For `C/C1=C/C(=O)O[C@@H]2C[C@@H](CC[C@H](C)/C=C\C=C\CC1)O[C@@](O)([C@@H]1CSC(=O)N1)C2`, the TGI in the experiment on SR leukemia is over 10 µM; with SNB-19 CNS it was over 7.89 µM; with DU-145 prostate it was over 10 µM; in the experiment with HT29 colon, over 10 µM; in the experiment on M14 melanoma, 3.75 µM; in the experiment with IGROV1 ovarian, 0.547 µM. For the same molecule, the TGI was over 10 µM in the experiment on MCF7 breast, over 10 µM in the experiment with OVCAR-4 ovarian, 1.01 µM with TK-10 renal and over 10 µM in the experiment with RPMI-8226 leukemia.
`COc1cc(C2SCC(=O)N2c2ncc(C)s2)cc(OC)c1OC` (configuration not stated): the GI50 in the experiment on SR leukemia was 3.06 µM; with SNB-19 CNS, 34.5 µM; with DU-145 prostate, 19.6 µM; in the experiment on HT29 colon, 23.3 µM; in the experiment on M14 melanoma, 21 µM; in the experiment on IGROV1 ovarian, over 50 µM. For the same molecule, the GI50 is over 50 µM in the experiment with MCF7 breast, over 50 µM in the experiment with OVCAR-4 ovarian, 21.4 µM in the experiment on TK-10 renal and 17.2 µM in the experiment on RPMI-8226 leukemia. In addition, the TGI in the experiment on SR leukemia, in the experiment with SNB-19 CNS, in the experiment with DU-145 prostate, with HT29 colon, in the experiment with M14 melanoma and in the experiment with IGROV1 ovarian was over 50 µM throughout. Further, the TGI in the experiment with MCF7 breast, in the experiment on OVCAR-4 ovarian, in the experiment with TK-10 renal and in the experiment on RPMI-8226 leukemia was over 50 µM in each case.
On to `CC(C)=CCC[C@](C)(O)[C@H]1CC[C@]2(C)[C@@H]1CC[C@@H]1[C@@]3(C)CC/C(=N/O)C(C)(C)[C@@H]3CC[C@]12C`, for which the GI50 in the experiment with SR leukemia was 7.65 µM; in the experiment with SNB-19 CNS, 12.2 µM; with DU-145 prostate, 13.8 µM; in the experiment on HT29 colon it was 3.41 µM; in the experiment with M14 melanoma it was 16.3 µM; in the experiment on IGROV1 ovarian it was 20 µM. For the same molecule, the GI50 in the experiment with MCF7 breast is 4.2 µM; with OVCAR-4 ovarian, 13.9 µM; with TK-10 renal, 18 µM; with RPMI-8226 leukemia, 7.68 µM. In addition, the TGI is 49.4 µM with SR leukemia; over 100 µM with SNB-19 CNS; over 100 µM in the experiment with DU-145 prostate; 20.8 µM in the experiment on HT29 colon; over 100 µM with M14 melanoma; 76.6 µM with IGROV1 ovarian. Also, the TGI with MCF7 breast was over 100 µM; in the experiment on OVCAR-4 ovarian, over 100 µM; in the experiment on TK-10 renal it was 63.5 µM; in the experiment on RPMI-8226 leukemia, over 100 µM.
On to `O=Nc1ccc(NO)c2ccccc12`, for which the GI50 with SR leukemia was 16.3 µM; in the experiment on SNB-19 CNS, 15.1 µM; in the experiment with DU-145 prostate, 17.4 µM; in the experiment on HT29 colon it was 5.96 µM; in the experiment on M14 melanoma, 16.5 µM; with IGROV1 ovarian, 3.62 µM. Also, the GI50 with MCF7 breast is 10.5 µM; with OVCAR-4 ovarian, 3.33 µM; with TK-10 renal it was 27.6 µM; with RPMI-8226 leukemia it was 13.3 µM. The TGI in the experiment with SR leukemia was determined as 62 µM; in the experiment with SNB-19 CNS, 28.5 µM; in the experiment on DU-145 prostate, 31.5 µM; with HT29 colon, 24.7 µM; with M14 melanoma, 31.3 µM; in the experiment on IGROV1 ovarian, 16.4 µM. Besides, the TGI in the experiment on MCF7 breast was determined as 31.3 µM; in the experiment with OVCAR-4 ovarian, 16.2 µM; in the experiment with TK-10 renal, 42.5 µM; in the experiment on RPMI-8226 leukemia, 56.2 µM.
For `CS(=O)(=O)CCc1cccc(C(=O)c2cnn(-c3ccc(F)cc3)c2N)c1`, the GI50 in the experiment on SR leukemia, in the experiment with SNB-19 CNS, with DU-145 prostate, with HT29 colon, with M14 melanoma and in the experiment with IGROV1 ovarian was over 25 µM in each case. The GI50 in the experiment on MCF7 breast, in the experiment with OVCAR-4 ovarian, with TK-10 renal and in the experiment with RPMI-8226 leukemia was over 25 µM throughout. Also, the TGI in the experiment on SR leukemia, in the experiment with SNB-19 CNS, in the experiment with DU-145 prostate, with HT29 colon, with M14 melanoma and in the experiment on IGROV1 ovarian was over 25 µM throughout. Besides, the TGI with MCF7 breast, in the experiment on OVCAR-4 ovarian, with TK-10 renal and with RPMI-8226 leukemia was over 25 µM throughout.
Take `CC1CCCC(C(O)CC2CC(=O)NC(=O)C2)C1O` (configuration not stated): the TGI in the experiment on SR leukemia, in the experiment with SNB-19 CNS, in the experiment with DU-145 prostate, in the experiment on HT29 colon, in the experiment on M14 melanoma and in the experiment with IGROV1 ovarian was over 100 µM throughout. Further, the TGI in the experiment with MCF7 breast, in the experiment with OVCAR-4 ovarian, with TK-10 renal and with RPMI-8226 leukemia was over 100 µM in each case.
On to `c1ccc(CN2COc3c(ccc4c3OCN(Cc3ccccc3)C4)C2)cc1`, for which the GI50 in the experiment on SR leukemia is 0.534 µM; in the experiment on SNB-19 CNS, 1 µM; with DU-145 prostate it was 0.569 µM; with HT29 colon, 0.955 µM; with M14 melanoma, 0.49 µM; with IGROV1 ovarian, 0.802 µM. Moreover, the GI50 is 0.515 µM in the experiment with MCF7 breast, 0.333 µM in the experiment on OVCAR-4 ovarian, 0.464 µM in the experiment on TK-10 renal and 1.41 µM in the experiment on RPMI-8226 leukemia. In addition, the TGI in the experiment with SR leukemia, in the experiment on SNB-19 CNS, in the experiment on DU-145 prostate, with HT29 colon, in the experiment with M14 melanoma and with IGROV1 ovarian was over 100 µM in each case. Besides, the TGI in the experiment with MCF7 breast, in the experiment with OVCAR-4 ovarian, with TK-10 renal and in the experiment with RPMI-8226 leukemia was over 100 µM in each case.
Regarding `COc1cc(NCCCN=C(N)NC(N)=NC(C)C)c2ncccc2c1`, the GI50 in the experiment with SR leukemia is 7.71 µM; in the experiment with SNB-19 CNS, 11 µM; in the experiment with DU-145 prostate, 33.9 µM; with HT29 colon, 6.38 µM; with M14 melanoma, 27.4 µM; in the experiment on IGROV1 ovarian, 0.467 µM. For the same molecule, the GI50 with OVCAR-4 ovarian was 0.0588 µM; with TK-10 renal it was 15.7 µM; in the experiment on RPMI-8226 leukemia it was 6.55 µM. In addition, the TGI in the experiment with SR leukemia was 45.8 µM; in the experiment with SNB-19 CNS, 64.4 µM; in the experiment with DU-145 prostate it was over 100 µM; in the experiment on HT29 colon, over 100 µM; in the experiment on M14 melanoma it was over 83.1 µM; in the experiment with IGROV1 ovarian, 3.77 µM. Moreover, the TGI in the experiment with MCF7 breast was 0.0718 µM; in the experiment on OVCAR-4 ovarian, 1.64 µM; with TK-10 renal, 46.1 µM; in the experiment on RPMI-8226 leukemia, 26.2 µM.
For the molecule `CCC(=C/[C@H](C)C/C=C/C(C)=C/[C@@H](C)C(=O)[C@@H](C)[C@H](O)[C@@H](C)CC)/C=C/[C@@H]1OC(=O)C=C[C@H]1C`, the GI50 in the experiment with SR leukemia, in the experiment with SNB-19 CNS, in the experiment with DU-145 prostate, in the experiment on HT29 colon, in the experiment with M14 melanoma and in the experiment on IGROV1 ovarian was under 0.01 µM in each case. The GI50 with MCF7 breast, in the experiment with OVCAR-4 ovarian, in the experiment with TK-10 renal and in the experiment with RPMI-8226 leukemia was under 0.01 µM each time. Further, the TGI in the experiment with SR leukemia amounted to 0.115 µM; in the experiment on DU-145 prostate, 4.42 µM; in the experiment with HT29 colon it was 1.4 µM; in the experiment on M14 melanoma, 0.0103 µM; with MCF7 breast it was 1.23 µM; with OVCAR-4 ovarian, 1.5 µM. Besides, the TGI in the experiment on TK-10 renal is 1.52 µM; in the experiment with RPMI-8226 leukemia, under 0.01 µM.
